# Results: ChEMBL document CHEMBL1148751, “Optimization of the indenone ring of indenoisoquinoline topoisomerase I inhibitors” (2007)
# Assays:
# Type in all cases: functional
# HCT-116 = assay: Cytotoxicity against human HCT116 cells
# SF-539 = assay: Cytotoxicity against human SF539 cells
# UACC-62 = assay: Cytotoxicity against human UACC62 cells
# DU-145 = assay: Cytotoxicity against human DU145 cells
# OVCAR-3 = assay: Cytotoxicity against human OVCAR-3 cells
# SN12C = assay: Cytotoxicity against human SN12C cells
# MDA-MB-435 = assay: Cytotoxicity against human MDA-MB-435 cells
# HOP-62 = assay: Cytotoxicity against human HOP62 cells
Compound,GI50 (HCT-116),GI50 (SF-539),GI50 (UACC-62),GI50 (DU-145),GI50 (OVCAR-3),GI50 (SN12C),GI50 (MDA-MB-435),GI50 (HOP-62)
COc1cc2c3c(n(CCCN=[N+]=[N-])c(=O)c2cc1OC)-c1ccc(N)cc1C3=O,47 nM,50 nM,26 nM,59 nM,214 nM,148 nM,214 nM,51 nM
COc1cc2c3c(n(CCCBr)c(=O)c2cc1OC)-c1ccc(NC(C)=O)cc1C3=O,2570 nM,3800 nM,2090 nM,4680 nM,4360 nM,13800 nM,13800 nM,1290 nM
COC(=O)c1ccc2c(c1)C(=O)c1c-2n(CCCN)c(=O)c2cc(OC)c(OC)cc12,16600 nM,15800 nM,17400 nM,17800 nM,16600 nM,15100 nM,18200 nM,3720 nM
COc1cc2c3c(n(CCCN=[N+]=[N-])c(=O)c2cc1OC)-c1ccc([N+](=O)[O-])cc1C3=O,> 100000 nM,38900 nM,69200 nM,34700 nM,> 100000 nM,> 100000 nM,> 100000 nM,89100 nM
CCOc1ccc2c(c1)C(=O)c1c-2n(CCCN=[N+]=[N-])c(=O)c2cc([N+](=O)[O-])ccc12,1820 nM,3890 nM,2880 nM,3890 nM,20000 nM,5250 nM,39800 nM,3020 nM
CCOc1ccc2c(c1)C(=O)c1c-2n(CCCN)c(=O)c2cc([N+](=O)[O-])ccc12,174 nM,35 nM,55 nM,11 nM,457 nM,55 nM,200 nM,12 nM
CSc1ccc2c(c1)C(=O)c1c-2n(CCCBr)c(=O)c2cc([N+](=O)[O-])ccc12,2240 nM,4570 nM,3090 nM,3890 nM,> 100000 nM,891 nM,30900 nM,1050 nM
NCCCn1c2c(c3ccc([N+](=O)[O-])cc3c1=O)C(=O)c1cc(Br)ccc1-2,48 nM,11 nM,< 10 nM,< 10 nM,295 nM,< 10 nM,162 nM,33 nM
COc1ccc2c(c1)C(=O)c1c-2n(CCCCl)c(=O)c2cc([N+](=O)[O-])ccc12,794 nM,27 nM,< 10 nM,36 nM,3390 nM,< 10 nM,3240 nM,295 nM
[N-]=[N+]=NCCCn1c2c(c3ccc([N+](=O)[O-])cc3c1=O)C(=O)c1cc(-c3ccccc3)ccc1-2,> 100000 nM,> 100000 nM,> 100000 nM,> 100000 nM,> 100000 nM,> 100000 nM,> 100000 nM,> 100000 nM
CCc1ccc2c(c1)C(=O)c1c-2n(CCCN=[N+]=[N-])c(=O)c2cc([N+](=O)[O-])ccc12,> 50100 nM,> 50100 nM,> 50100 nM,> 50100 nM,> 50100 nM,> 50100 nM,> 50100 nM,> 50100 nM
NCCCn1c2c(c3ccc([N+](=O)[O-])cc3c1=O)C(=O)c1cc(F)ccc1-2,< 10 nM,28 nM,< 10 nM,< 10 nM,52 nM,34 nM,81 nM,< 10 nM
